Experiments:
[1] = tested on: platelets; assay: Platelet Aggregation Inhibition Activity (gel-filtered platelets, thrombin or ADP agonist, light transmission); assay type: cell-based; conditions: 37° C.; for IC50: unit inferred
Experimental: The percentage of platelet aggregation is calculated as an increase in light transmission of drug treated platelet concentrate vs control treated platelet concentrate. Blood is obtained from drug free, normal donors and placed into tubes containing 0.13 M sodium citrate (two sources are routinely used: platelet concentrate obtained from Biological Specialty Corp., Lansdale, Pa. or whole blood obtained from donors). Platelet rich plasma (PRP) is collected by centrifugation of the concentrate or whole blood at 130 ×g for 15 min at 25° C. The PRP (5 mL) is gel filtered through Sepharose 2B (bed volume 50 mL), and the platelet count is adjusted to 2×10^7 platelets per sample. The following constituents are added to a siliconized cuvette: 250 μL of the concentrated platelet flitrate, 100 μL of Tyrode's buffer (0.14 M NaCl, 0.0027 M KCl, 0.012 M NaHCO3, 0.76 mM Na2HPO4, 0.0055 M glucose and 2 mg/mL BSA pH 7.4), 50 μL of 2 mM calcium and test drug […]. Aggregation is monitored in a dual channel Chrono-log Aggregometer for three minutes following the addition of agonist (thrombin 50 μL of 1 unit/mL, or ADP 50 μL of 100 μM). The final assay volume is 500 μL. The reaction takes place at 37° C. The peak aggregation response is calculated as the increase in light transmission units over a three minute period. The difference of the increase in light transmission between control and drug treated platelets is then expressed as a percent of the nondrug treated controls.

[2] = target: T1, fibrinogen receptor of blood platelets (activated platelets) (Homo sapiens, UniProt P05106+P08514); assay: Fibrinogen Binding (125I-fibrinogen binding to thrombin-activated platelets); conditions: 125I-fibrinogen 0.15 μM; for IC50: unit inferred
T1 construct: from tissue
Experimental: The compounds of the invention as identified above are evaluated for platelet aggregation inhibition activity as indicated by the percentage of non-aggregated platelets which are available for binding in accordance with the following procedure.
^125 I-Fibrinogen binding to activated platelets is a modification of the procedure described by Bennett et al., 1988. Briefly, 40 mL of PRP are centrifuged at 120 ×g to remove contaminating red cells. Aspirin (50 μM) is added and the PRP is incubated at 37° C. for 20 minutes. The pH of the PRP is adjusted to 6.5 with 3.8% sodium citrate and 0.9 μM of PGE1 is added. Platelets are concentrated by a 300 ×g centrifugation (10 min) and the pellet is resuspended in 4 mL. of Tyrode's buffer. The platelet suspension (4 mL) is gel-filtered through a Sepharose-2B column (50 mL bed volume). The platelet count is adjusted to 1×10^8 platelets per 200 mL. The binding reaction is performed in polystyrene tubes (final volume 500 mL). Reagents are added in the following order: 80 mL of Tyrode's buffer, 50 mL of CaCl2 (final concentration (f.c.) […]) and 50 mL of thrombin (f.c. 0.1 unit/mL). The platelet suspension is then added and the mixture is allowed to incubate at room temperature for 2 minutes. Hirudin (50 mL, f.c. 0.5 unit/mL) is immediately added to prevent the catalytic activity of thrombin. Various concentrations of the compound to be tested […] with the competing radioligand ^125 I-fibrinogen (f.c. of 0.15 μM) are added. The mixture is incubated for 10 minutes at room temperature. To terminate the binding reaction the platelets are sedimented (10,000 ×g for 3 minutes) through silicone oil (3:1 hi-phenol 550/methyl silicone 200, W. F. Nye, Inc., New Bedford, Mass.), in an Eppendorf centrifuge.
The tips of the centrifuge tubes containing the pelleted platelets are cut off and counted for ^125 I-fibrinogen associated with the stimulated platelets. The amount of platelet radioactivity measured in the presence of nonlabeled fibrinogen (4 mg/mL) is considered the nonspecific binding.
Data are expressed as a percent at concentrations of 30 μM of specifically bound ^125 I-fibrinogen to the platelets in Table 5 below. Positive percentages of fibrinogen binding indicates higher activity for inhibiting platelet aggregation since only non-aggregated or free platelets are available for fibrinogen binding. Alternatively, a concentration is provided in lieu of a percentage to indicate the IC50 of concentration of compound which provides 50% fibrinogen binding.

T1 sequence (P08514 32-887 limits assumed): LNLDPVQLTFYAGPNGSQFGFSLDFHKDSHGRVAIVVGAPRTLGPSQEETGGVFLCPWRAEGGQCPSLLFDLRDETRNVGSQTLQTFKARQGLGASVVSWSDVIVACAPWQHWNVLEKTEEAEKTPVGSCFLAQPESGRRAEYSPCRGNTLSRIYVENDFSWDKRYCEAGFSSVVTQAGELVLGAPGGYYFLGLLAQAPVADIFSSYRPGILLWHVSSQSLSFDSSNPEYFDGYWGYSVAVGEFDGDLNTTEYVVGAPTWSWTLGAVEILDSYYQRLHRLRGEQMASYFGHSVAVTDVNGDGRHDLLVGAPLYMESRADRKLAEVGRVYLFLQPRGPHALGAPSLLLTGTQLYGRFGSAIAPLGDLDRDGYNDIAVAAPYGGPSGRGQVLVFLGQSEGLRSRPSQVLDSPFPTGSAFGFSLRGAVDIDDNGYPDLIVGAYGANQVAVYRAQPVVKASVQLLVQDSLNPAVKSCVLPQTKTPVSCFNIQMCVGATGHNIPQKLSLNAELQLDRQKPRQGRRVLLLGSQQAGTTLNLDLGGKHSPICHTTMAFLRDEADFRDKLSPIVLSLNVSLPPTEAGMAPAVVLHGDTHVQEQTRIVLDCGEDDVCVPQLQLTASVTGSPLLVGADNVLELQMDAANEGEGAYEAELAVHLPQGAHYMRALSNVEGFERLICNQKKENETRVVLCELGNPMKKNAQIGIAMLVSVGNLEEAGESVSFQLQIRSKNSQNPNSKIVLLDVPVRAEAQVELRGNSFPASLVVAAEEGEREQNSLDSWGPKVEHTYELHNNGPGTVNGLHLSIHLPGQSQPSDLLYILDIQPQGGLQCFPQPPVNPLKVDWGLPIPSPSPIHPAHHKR
T1 sequence (P08514 891-1039 partner limits assumed): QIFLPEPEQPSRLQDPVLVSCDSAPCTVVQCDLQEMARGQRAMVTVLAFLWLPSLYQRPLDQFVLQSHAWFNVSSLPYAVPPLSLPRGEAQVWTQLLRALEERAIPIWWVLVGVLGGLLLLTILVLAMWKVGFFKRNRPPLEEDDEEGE
T1 sequence (P05106 27-788): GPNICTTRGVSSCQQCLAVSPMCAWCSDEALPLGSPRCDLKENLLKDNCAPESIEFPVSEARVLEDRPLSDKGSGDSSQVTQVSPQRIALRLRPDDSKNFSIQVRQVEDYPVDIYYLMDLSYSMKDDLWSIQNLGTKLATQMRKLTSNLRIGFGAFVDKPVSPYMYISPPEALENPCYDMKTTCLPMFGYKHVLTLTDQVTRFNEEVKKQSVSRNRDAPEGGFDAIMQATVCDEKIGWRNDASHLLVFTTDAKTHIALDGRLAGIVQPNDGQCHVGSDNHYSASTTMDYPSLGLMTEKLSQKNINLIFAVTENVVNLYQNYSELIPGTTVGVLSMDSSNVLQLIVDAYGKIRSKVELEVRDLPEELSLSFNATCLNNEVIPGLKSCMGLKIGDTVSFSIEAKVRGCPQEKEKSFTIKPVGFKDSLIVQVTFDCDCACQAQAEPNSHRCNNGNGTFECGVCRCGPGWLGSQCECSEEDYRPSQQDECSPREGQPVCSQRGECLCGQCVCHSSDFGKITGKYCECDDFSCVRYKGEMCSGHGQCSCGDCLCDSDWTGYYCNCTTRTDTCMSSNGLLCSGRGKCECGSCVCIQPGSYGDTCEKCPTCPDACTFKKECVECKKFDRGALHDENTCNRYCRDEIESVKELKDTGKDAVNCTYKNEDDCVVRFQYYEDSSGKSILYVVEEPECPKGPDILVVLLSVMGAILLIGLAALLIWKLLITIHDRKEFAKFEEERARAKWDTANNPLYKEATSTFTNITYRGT

Row | Compound | inhibition at 20 µM [1] | inhibition at 30 µM [2] | IC50 [1] | IC50 [2]
1 | Cc1ccc(-c2csc(Nc3nc4c(c(-c5ccccc5)n3)CNCC4)n2)cc1 [Cmpd 15, 2-[4-[4-Methylphenyl]thiazol-2-yl]amino-5,6,7,8-tetrahydro-4-phenylpyrimidino[4,5-d]pyridine] | 85% | 28% |  | 
2 | O=C(c1ccccc1)N1CCc2nc(Nc3nc(-c4ccc(F)cc4)cs3)nc(-c3ccccc3)c2C1 [Cmpd 9] | 27% |  |  | 
3 | c1ccc(-c2csc(Nc3ncc4c(n3)CCNC4)n2)cc1 [Cmpd 24] | 11% |  |  | 
4 | COc1ccc(-c2csc(Nc3nc4c(c(-c5ccccc5)n3)CNCC4)n2)cc1 [Cmpd 18] | 25% |  |  | 
5 | Clc1ccc(-c2csc(Nc3nc4c(c(-c5ccccc5)n3)CNCC4)n2)cc1 [Cmpd 21] | 84% | 87% | 6.1 µM | 20.9 µM
6 | Cc1ccc(-c2csc(Nc3ncc4c(n3)CCNC4)n2)cc1 [Cmpd 23] | 25% |  |  | 
7 | c1ccc(-c2csc(Nc3nc4c(c(-c5ccccc5)n3)CNCC4)n2)cc1 [Cmpd 13, 2-[4-Phenylthiazol-2-yl]amino-5,6,7,8-tetrahydro-4-phenylpyrimidino[4,5-d]pyridine] | 100% | 69% | 7.93 µM | 7.7 µM
8 | Cc1ccc(-c2csc(Nc3nc4c(c(-c5ccccc5)n3)CN(C(=O)CCN3CCN(C)CC3)CC4)n2)cc1 [Cmpd 26] | 81% | 39% |  | 
9 | CCCNCCC(=O)N1CCc2nc(Nc3nc(-c4cccc(Cl)c4)cs3)nc(-c3ccccc3)c2C1 [Cmpd 28] | 56% |  |  | 
10 | Fc1ccc(-c2csc(Nc3nc4c(c(-c5ccccc5)n3)CNCC4)n2)cc1 [Cmpd 20] | 87% | 95% | 5.8 µM | 20.9 µM

Source: patent US5405848A, “Substituted thiazolylaminotetrahydropyridopyrimidines derivatives useful as platelet aggregation inhibitors” (Ortho Pharmaceutical Corporation, priority 1993, dated 1995)
